The values below come from patent US20240166649A1, “DIHYDROPYRIMIDINE COMPOUND, PREPARATION METHOD THEREFOR AND APPLICATION THEREOF” (Shanghai Visonpharma Co., Ltd., priority 2021, published 2024).

The test system of this experiment is HBV (hepatitis B virus) in HepG2.2.15 cells. The experiment can be described thus: Cell-based anti-viral activity assay (HBV DNA in supernatant by quantitative PCR). Particulars: 120 h, anti-HBV activity, HepG2.2.15 cells, 5 days, read-out: EC50 (HepG2.2.15). How it is done: Cell-Based Anti-Viral Activity Assay
The Invention determined the anti-HBV (hepatitis B virus) activity of compounds in HepG2.2.15 cells (Table 1).
HepG2.2.15 is a cell line stably transfected with the HBV genome. HepG2.2.15 cells were cultured in DMEM (1X) with 10% fetal bovine serum (Corning), 100 U penicillin (Gibico), 100 μg/mL streptomycin (Gibico), 250 μg/mL geneticin (Gibco) and GlutaMAXTM-I medium (Invitrogen).
HepG2.2.15 cells were seeded into 96-well plates (4×10^4 cells in 100 μL of medium per well) and incubated overnight at 37° C. The test compounds were weighed and prepared as 10 mM stock solution with DMSO. The stock solutions of the compounds were diluted by a gradient of 3.16 times with DMSO, and then diluted by a gradient of 3.16 times with medium for 50 times. Finally, the diluted compound solutions were added to the cell plate with a total volume of 200 μL and the final DMSO concentration was 1%. The 96-well culture plates loaded with drugs were transferred to an incubator at 37° C. for 5 days. […] nucleic acid releasing agent was added to 96-well PCR reaction plate, and 2 μL of cell supernatant or HBV quantitative standards were added to the corresponding Wells. Centrifuged the plates to fully mix, and incubated at room temperature for 10 min to fully release nucleic acid. Quantified HBV DNA content by fluorescent quantitative PCR (CFX Connect Real-Time System) using Sanxiang Bio hepatitis B virus fluorescent quantitative diagnostic kit.
The standard curve was established by taking the logarithm of the copy number (IU/ml) of the HBV standard sample (log 10) as the abscordinate and the corresponding CT value as the ordinate. The copy number of the sample was calculated according to the corresponding CT of the positive sample and the standard curve, and the percentage of inhibition rate was calculated as follows: • % Inhibition=100-100*(sample HBV copy number−high concentration reference compound column HBV copy number)/DMSO column HBV copy number−high concentration reference compound column HBV copy number).
For the compound `CCOC(=O)C1=C(CN2CCN3C(=O)N(C45CC(N(C)S(C)(=O)=O)(C4)C5)C[C@@H]3C2)NC(c2nccs2)=N[C@H]1c1cccc(F)c1C` [Compound 11, Ethyl (S)-4-(3-Fluoro-2-Methylphenyl)-6-(((S)-2-(3-(N-Methylmethylsulfonamido)Bicyclo[1.1.1]Pentan-1-Yl)-3-Oxohexahydroimidazo[1,5-a]Pyrazin-7(1H)-Yl)Methyl)-2-(Thiazol-2-Yl)-1,4-Dihydropyrimidine-5-Carboxylate], the EC50 turned out to be 4 nM.
As for `CCOC(=O)C1=C(CN2CCN3C(=S)N(C45CC(C(=O)O)(C4)C5)C[C@@H]3C2)NC(c2nccs2)=N[C@H]1c1cccc(F)c1C` [Compound 32, 3-((S)-7-(((S)-5-(Ethoxycarbonyl)-6-(3-Fluoro-2-Methylphenyl)-2-(Thiazol-2-Yl)-3,6-Dihydropyrimidin-4-Yl)Methyl)-3-Thioxohexahydroimidazo[1,5-a]Pyrazin-2(3H)-Yl)Bicyclo[1.1.1]Pentane-1-Carb Oxylic Acid], the EC50 is 30 nM.
As for `CCOC(=O)C1=C(CN2CCN3C(=O)N(C45CC(C(=O)N6CCOCC6)(C4)C5)C[C@@H]3C2)NC(c2nccs2)=N[C@H]1c1cccc(F)c1C` [Compound 27, Ethyl (S)-4-(3-Fluoro-2-Methylphenyl)-6-(((S)-2-(3-(Morpholine-4-Carbonyl)Bicyclo[1.1.1]Pentan-1-Yl)-3-Oxohexahydroimidazo[1,5-a]Pyrazin-7(1H)-Yl)Methyl)-2-(Thiazol-2-Yl)-1,4-Dihydropyrimidine-5-Carboxylate], the figure is 6 nM.
As for `CCOC(=O)C1=C(CN2CCN3C(=O)N(C45CC(CC(=O)O)(C4)C5)C[C@@H]3[C@H]2COC)NC(c2nccs2)=N[C@H]1c1cccc(F)c1C` [Compound 43, 2-(3-((8S,8aR)-7-(((S)-5-(Ethoxycarbonyl)-6-(3-Fluoro-2-Methylphenyl)-2-(Thiazol-2-Yl)-3,6-Dihydropyrimidin-4-Yl)Methyl)-8-(Methoxymethyl)-3-Oxohexahydroimidazo[1,5-a]Pyrazin-2(3H)-Yl)Bicyclo[1.1.1]Pentan-1-Yl)Acetic Acid], the figure is 197 nM; as for `CCOC(=O)C1=C(CN2CCN3C(=O)N(C45CC(N(C)C(C)=O)(C4)C5)C[C@@H]3C2)NC(c2nccs2)=N[C@H]1c1cccc(F)c1C` [Compound 12, Ethyl (S)-4-(3-Fluoro-2-Methylphenyl)-6-(((S)-2-(3-(N-Methylacetamido)Bicyclo[1.1.1]Pentan-1-Yl)-3-Oxohexahydroimidazo[1,5-a]Pyrazin-7(1H)-Yl)Methyl)-2-(Thiazol-2-Yl)-1,4-Dihydropyrimidine-5-Carboxylate], 3 nM; as for `CCOC(=O)C1=C(CN2CCN3C(=O)N(C45CC(CC(=O)O)(C4)C5)C[C@@H]3C2)NC(c2nccs2)=N[C@H]1c1cccc(F)c1Cl` [Compound 34, 2-(3-((S)-7-(((R)-6-(2-Chloro-3-Fluorophenyl)-5-(Ethoxycarbonyl)-2-(Thiazol-2-Yl)-3,6-Dihydropyrimidin-4-Yl)Methyl)-3-Oxohexahydroimidazo[1,5-a]Pyrazin-2(3H)-Yl)Bicyclo[1.1.1]Pentan-1-Yl)Acetic Acid], 22 nM.
As for `CCOC(=O)C1=C(CN2CCN3C(=O)N(C45CCC(C(=O)O)(CC4)CC5)C[C@@H]3C2)NC(c2nccs2)=N[C@H]1c1ccc(F)c(F)c1C` [Compound 54], the figure is 3 nM; as for `CCOC(=O)C1=C(CN2CCN3C(=O)N(C45CC(C(OC)C(=O)O)(C4)C5)C[C@@H]3C2)NC(c2nccs2)=N[C@H]1c1cccc(F)c1C` (stereo partly drawn) [Compound 51, 2-(3-((S)-7-(((S)-5-(Ethoxycarbonyl)-6-(3-Fluoro-2-Methylphenyl)-2-(Thiazol-2-Yl)-3,6-Dihydropyrimidin-4-Yl)Methyl)-3-Oxohexahydroimidazo[1,5-a]Pyrazin-2(3H)-Yl)Bicyclo[1.1.1]Pentan-1-Yl)-2-Methoxyacetic Acid], 139 nM.
Take `CCOC(=O)C1=C(CN2CCN3C(=O)N(C45CCC(CC(=O)O)(CC4)C5)C[C@@H]3C2)NC(c2nccs2)=N[C@H]1c1ccc(F)cc1C` [Compound 64, 2-(4-((S)-7-(((S)-5-(Ethoxycarbonyl)-6-(4-Fluoro-2-Methylphenyl)-2-(Thiazol-2-Yl)-3,6-Dihydropyrimidin-4-Yl)Methyl)-3-Oxohexahydroimidazo[1,5-a]Pyrazin-2(3H)-Yl)Bicyclo[2.2.1]Heptan-1-Yl)Acetic Acid]: the EC50 was 57 nM.
The same measure for `CCOC(=O)C1=C(CN2CCN3C(=O)N(C45CC(CC#N)(C4)C5)C[C@@H]3C2)NC(c2nccs2)=N[C@H]1c1cccc(F)c1C` [Compound 20, Ethyl (S)-6-(((S)-2-(3-(Cyanomethyl)Bicyclo[1.1.1]Pentan-1-Yl)-3-Oxohexahydroimidazo[1,5-a]Pyrazin-7 (1H)-Yl)Methyl)-4-(3-Fluoro-2-Methylphenyl)-2-(Thiazol-2-Yl)-1,4-Dihydropyrimidine-5-Carboxylate]: 3 nM; for `CCOC(=O)C1=C(CN2CCN3C(=O)N(C45CC(CNS(N)(=O)=O)(C4)C5)C[C@@H]3C2)NC(c2nccs2)=N[C@H]1c1cccc(F)c1C` [Compound 24, Ethyl (S)-4-(3-Fluoro-2-Methylphenyl)-6-(((S)-3-Oxo-2-(3-((Sulfamoylamino)Methyl)Bicyclo[1.1.1]Pentan-1-Yl)Hexahydroimidazo[1,5-a]Pyrazin-7(1H)-Yl)Methyl)-2-(Thiazol-2-Yl)-1,4-Dihydropyrimidine-5-Carboxylate]: 9 nM.
As for `CCOC(=O)C1=C(CN2CCN3C(=O)N(C45CC(CNC(C)=O)(C4)C5)C[C@@H]3C2)NC(c2nccs2)=N[C@H]1c1cccc(F)c1C` [Compound 15, ethyl (S)-6-(((S)-2-(3-(Acetamidomethyl)Bicyclo[1.1.1]Pentan-1-Yl)-3-Oxohexahydroimidazo[1,5-a]Pyrazin-7(1H)-Yl)Methyl)-4-(3-Fluoro-2-Methylphenyl)-2-(Thiazol-2-Yl)-1,4-Dihydropyrimidine-5-Carboxylate], the figure is 4 nM.
Take `CCOC(=O)C1=C(CN2CCN3C(=O)N(C45CC(C(O)C(=O)O)(C4)C5)C[C@@H]3C2)NC(c2nccs2)=N[C@H]1c1cccc(F)c1C` (stereo partly drawn) [Compound 50, 2-(3-((S)-7-(((S)-5-(Ethoxycarbonyl)-6-(3-Fluoro-2-Methylphenyl)-2-(Thiazol-2-Yl)-3,6-Dihydropyrimidin-4-Yl)Methyl)-3-Oxohexahydroimidazo[1,5-a]Pyrazin-2(3H)-Yl)Bicyclo[1.1.1]Pentan-1-Yl)-2-Hydroxyacetic Acid]: the EC50 was 3 nM.
As for `CCOC(=O)C1=C(CN2CCN3C(=O)N(C45CCC(CC(=O)O)(CC4)C5)C[C@@H]3C2)NC(c2nccs2)=N[C@H]1c1ccc(F)cc1Cl` [Compound 65, 2-(4-((S)-7-(((R)-6-(2-Chloro-4-Fluorophenyl)-5-(Ethoxycarbonyl)-2-(Thiazol-2-Yl)-3,6-Dihydropyrimidin-4-Yl)Methyl)-3-Oxohexahydroimidazo[1,5-a]Pyrazin-2(3H)-Yl)Bicyclo[2.2.1]Heptan-1-Yl)Acetic Acid], the figure is 42 nM; as for `CCOC(=O)C1=C(CN2CCN3C(=O)N(C45CC(C(=O)NC)(C4)C5)C[C@@H]3C2)NC(c2nccs2)=N[C@H]1c1cccc(F)c1C` [Compound 26, Ethyl (S)-4-(3-Fluoro-2-Methylphenyl)-6-(((S)-2-(3-(Methylcarbamoyl)Bicyclo[1.1.1]Pentan-1-Yl)-3-Oxohexahydroimidazo[1,5-a]Pyrazin-7(1H)-Yl)Methyl)-2-(Thiazol-2-Yl)-1,4-Dihydropyrimidine-5-Carboxylate], 5 nM; as for `CCOC(=O)C1=C(CN2CCN3C(=O)N(C45CC(NC(C)=O)(C4)C5)C[C@@H]3C2)NC(c2nccs2)=N[C@H]1c1cccc(F)c1C` [Compound 10, Ethyl (S)-6-(((S)-2-(3-Acetamidobicyclo[1.1.1]Pentan-1-Yl)-3-Oxohexahydroimidazo[1,5-a]Pyrazin-7(1H)-Yl)Methyl)-4-(3-Fluoro-2-Methylphenyl)-2-(Thiazol-2-Yl)-1,4-Dihydropyrimidine-5-Carboxylate], 8 nM.
The same measure for `CCOC(=O)C1=C(CN2CCN3C(=O)N(C45CC(C(=O)N6CCCC6)(C4)C5)C[C@@H]3C2)NC(c2nccs2)=N[C@H]1c1cccc(F)c1C` [Compound 6, Ethyl (S)-4-(3-Fluoro-2-Methylphenyl)-6-(((S)-3-Oxo-2-(3-(Pyrrolidine-1-Carbonyl)Bicyclo[1.1.1]Pentan-1-Yl)Hexahydroimidazo[1,5-a]Pyrazin-7(1H)-Yl)Methyl)-2-(Thiazol-2-Yl)-1,4-Dihydropyrimidine-5-Carboxylate]: 8 nM.
As for `CCOC(=O)C1=C(CN2CCN3C(=O)N(C45CC(C(N)=O)(C4)C5)C[C@@H]3C2)NC(c2nccs2)=N[C@H]1c1cccc(F)c1C` [Compound 7, ethyl (S)-6-(((S)-2-(3-Carbamoylbicyclo[1.1.1]Pentan-1-Yl)-3-Oxohexahydroimidazo[1,5-a]Pyrazin-7(1H)-Yl)Methyl)-4-(3-Fluoro-2-Methylphenyl)-2-(Thiazol-2-Yl)-1,4-Dihydropyrimidine-5-Carboxylate], the figure is 7 nM.
